Tested on: 138582-337-R-J1-PDC complex spheroid viability
Experiment: Anticancer human tumor 138582-337-R-J1-PDC patient-derived Merkel cell tumor cell line growth inhibition
Conditions: for IC50: curve of first compound; for viability, T/C: stronger effect = lower value
Outline: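 Multicellular complex spheroids of tumor cells with human endothelial cells (HUVEC) and mesenchymal stem cells; the LSD1 inhibitor iadademstat was combined with standard-of-care or investigational agents. Top concentration at or near clinical Cmax, half-log dilutions; final DMSO ≤0.25%.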

[1] = second compound 0.1 µM, first compound 0.00949 µM
[2] = second compound 0.1 µM, first compound 0.03 µM
[3] = second compound 0.1 µM, first compound 0.0949 µM
[4] = second compound 0.1 µM, first compound 0.3 µM
[5] = second compound 0.316 µM, first compound 0.00949 µM
[6] = second compound 0.316 µM, first compound 0.03 µM
[7] = second compound 0.316 µM, first compound 0.0949 µM
[8] = second compound 0.316 µM, first compound 0.3 µM
[9] = second compound 1 µM, first compound 0.00949 µM
[10] = second compound 1 µM, first compound 0.03 µM
[11] = second compound 1 µM, first compound 0.0949 µM
[12] = second compound 1 µM, first compound 0.3 µM
[13] = second compound 3.16 µM, first compound 0.00949 µM
[14] = second compound 3.16 µM, first compound 0.03 µM
[15] = second compound 3.16 µM, first compound 0.0949 µM
[16] = second compound 3.16 µM, first compound 0.3 µM
[17] = second compound 10 µM, first compound 0.00949 µM
[18] = second compound 10 µM, first compound 0.03 µM
[19] = second compound 10 µM, first compound 0.0949 µM
[20] = second compound 10 µM, first compound 0.3 µM
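Further: spheroids exposed to agents for 7 days.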
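Wherever viability, T/C is given: 100% = DMSO vehicle control viability.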

What does the source list for `COc1cc(C2c3cc4c(cc3C(OC3OC5COC(C)OC5C(O)C3O)C3COC(=O)C23)OCO4)cc(OC)c1O` (stereo not given) + NC1CCC(NC2CC2c2ccccc2)CC1?
IC50 (second compound 0.1 µM): > 3000 nM; IC50 (second compound 0.316 µM): > 3000 nM; IC50 (second compound 1 µM): > 3000 nM; IC50 (second compound 3.16 µM): > 3000 nM; IC50 (second compound 10 µM): > 3000 nM; viability, T/C [1]: 105%; viability, T/C [2]: 89.8%; viability, T/C [3]: 67.3%; viability, T/C [4]: 69.4%; viability, T/C (second compound 0.1 µM, first compound 0.949 µM): 70.3%; viability, T/C (second compound 0.1 µM, first compound 3 µM): 66.4%; viability, T/C [5]: 102%; viability, T/C [6]: 76.3%; viability, T/C [7]: 85.4%; viability, T/C [8]: 85.8%; viability, T/C (second compound 0.316 µM, first compound 0.949 µM): 74%; viability, T/C (second compound 0.316 µM, first compound 3 µM): 60.7%; viability, T/C [9]: 90.8%; viability, T/C [10]: 95.3%; viability, T/C [11]: 76%; viability, T/C [12]: 68.7%; viability, T/C (second compound 1 µM, first compound 0.949 µM): 94.1%; viability, T/C (second compound 1 µM, first compound 3 µM): 85.2%; viability, T/C [13]: 82.6%; viability, T/C [14]: 87.3%; viability, T/C [15]: 85.1%; viability, T/C [16]: 71.6%; viability, T/C (second compound 3.16 µM, first compound 0.949 µM): 69.1%; viability, T/C (second compound 3.16 µM, first compound 3 µM): 95.3%; viability, T/C [17]: 73.8%; viability, T/C [18]: 81.6%; viability, T/C [19]: 75.3%; viability, T/C [20]: 82%; viability, T/C (second compound 10 µM, first compound 0.949 µM): 65.5%; viability, T/C (second compound 10 µM, first compound 3 µM): 56.7%

How did the IC50 (second compound 0.1 µM) turn out when `Nc1ccn(C2OC(CO)C(O)C2(F)F)c(=O)n1` (stereo not given) + NC1CCC(NC2CC2c2ccccc2)CC1 was run?
Its IC50 is greater than 300 nM.

What about the IC50 (second compound 0.316 µM) of the same molecule?
The IC50 was greater than 300 nM.

What about the IC50 (second compound 1 µM) of the same molecule?
Its IC50 is greater than 300 nM.

And the IC50 (second compound 3.16 µM)?
Its IC50 is greater than 300 nM.

And the IC50 (second compound 10 µM)?
The IC50 was greater than 300 nM.

And the viability, T/C (second compound 0.1 µM, first compound 0.000949 µM)?
The viability, T/C was 96%.

What about the viability, T/C (second compound 0.1 µM, first compound 0.003 µM) of the same molecule?
Its viability, T/C is 94.2%.

What about the viability, T/C [1] of the same molecule?
The viability, T/C was 94.2%.

And the viability, T/C [2]?
The viability, T/C was 95.3%.

What about the viability, T/C [3] of the same molecule?
The viability, T/C was 94.7%.

And the viability, T/C [4]?
The viability, T/C was 105%.

What about the viability, T/C (second compound 0.316 µM, first compound 0.000949 µM) of the same molecule?
The viability, T/C was 89.9%.

What about the viability, T/C (second compound 0.316 µM, first compound 0.003 µM) of the same molecule?
The viability, T/C was 92%.

What about the viability, T/C [5] of the same molecule?
Its viability, T/C is 93.6%.

What about the viability, T/C [6] of the same molecule?
The viability, T/C was 85.8%.

And the viability, T/C [7]?
The viability, T/C was 84.2%.

What about the viability, T/C [8] of the same molecule?
Its viability, T/C is 106%.

And the viability, T/C (second compound 1 µM, first compound 0.000949 µM)?
The viability, T/C was 98.3%.

What about the viability, T/C (second compound 1 µM, first compound 0.003 µM) of the same molecule?
Its viability, T/C is 93.7%.

And the viability, T/C [9]?
The viability, T/C was 95.4%.

What about the viability, T/C [10] of the same molecule?
The viability, T/C was 80.9%.

And the viability, T/C [11]?
Its viability, T/C is 108%.

And the viability, T/C [12]?
The viability, T/C was 85.6%.

What about the viability, T/C (second compound 3.16 µM, first compound 0.000949 µM) of the same molecule?
The viability, T/C was 79.8%.

What about the viability, T/C (second compound 3.16 µM, first compound 0.003 µM) of the same molecule?
The viability, T/C was 81%.

What about the viability, T/C [13] of the same molecule?
The viability, T/C was 91.8%.

And the viability, T/C [14]?
Its viability, T/C is 87.9%.

And the viability, T/C [15]?
The viability, T/C was 85.8%.

And the viability, T/C [16]?
Its viability, T/C is 88.7%.

What about the viability, T/C (second compound 10 µM, first compound 0.000949 µM) of the same molecule?
Its viability, T/C is 88.7%.

What about the viability, T/C (second compound 10 µM, first compound 0.003 µM) of the same molecule?
The viability, T/C was 71.1%.

And the viability, T/C [17]?
Its viability, T/C is 87%.

And the viability, T/C [18]?
Its viability, T/C is 79.4%.

What about the viability, T/C [19] of the same molecule?
The viability, T/C was 76.4%.

What about the viability, T/C [20] of the same molecule?
The viability, T/C was 92.6%.

`Nc1ncn(C2CC(O)C(CO)O2)c(=O)n1` (stereo not given) + NC1CCC(NC2CC2c2ccccc2)CC1 was tested. Which IC50 (second compound 0.1 µM) did it give?
The IC50 was greater than 1000 nM.

And the IC50 (second compound 0.316 µM)?
Its IC50 is greater than 1000 nM.

And the IC50 (second compound 1 µM)?
Its IC50 is greater than 1000 nM.

And the IC50 (second compound 3.16 µM)?
The IC50 was greater than 1000 nM.

And the IC50 (second compound 10 µM)?
Its IC50 is greater than 1000 nM.

What about the viability, T/C (second compound 0.1 µM, first compound 0.00316 µM) of the same molecule?
Its viability, T/C is 98.7%.

What about the viability, T/C (second compound 0.1 µM, first compound 0.01 µM) of the same molecule?
The viability, T/C was 97.8%.

And the viability, T/C (second compound 0.1 µM, first compound 0.0316 µM)?
The viability, T/C was 103%.

What about the viability, T/C (second compound 0.1 µM, first compound 0.1 µM) of the same molecule?
The viability, T/C was 108%.

And the viability, T/C (second compound 0.1 µM, first compound 0.316 µM)?
Its viability, T/C is 95.4%.

What about the viability, T/C (second compound 0.1 µM, first compound 1 µM) of the same molecule?
The viability, T/C was 102%.

And the viability, T/C (second compound 0.316 µM, first compound 0.00316 µM)?
Its viability, T/C is 82.7%.

What about the viability, T/C (second compound 0.316 µM, first compound 0.01 µM) of the same molecule?
The viability, T/C was 99.4%.

What about the viability, T/C (second compound 0.316 µM, first compound 0.0316 µM) of the same molecule?
Its viability, T/C is 96.6%.

What about the viability, T/C (second compound 0.316 µM, first compound 0.1 µM) of the same molecule?
Its viability, T/C is 107%.

What about the viability, T/C (second compound 0.316 µM, first compound 0.316 µM) of the same molecule?
The viability, T/C was 89.7%.

What about the viability, T/C (second compound 0.316 µM, first compound 1 µM) of the same molecule?
Its viability, T/C is 96.5%.

What about the viability, T/C (second compound 1 µM, first compound 0.00316 µM) of the same molecule?
Its viability, T/C is 96.9%.

And the viability, T/C (second compound 1 µM, first compound 0.01 µM)?
The viability, T/C was 110%.

And the viability, T/C (second compound 1 µM, first compound 0.0316 µM)?
Its viability, T/C is 97.5%.

And the viability, T/C (second compound 1 µM, first compound 0.1 µM)?
Its viability, T/C is 81.1%.

And the viability, T/C (second compound 1 µM, first compound 0.316 µM)?
Its viability, T/C is 83.2%.

What about the viability, T/C (second compound 1 µM, first compound 1 µM) of the same molecule?
The viability, T/C was 97.3%.

And the viability, T/C (second compound 3.16 µM, first compound 0.00316 µM)?
The viability, T/C was 100%.

What about the viability, T/C (second compound 3.16 µM, first compound 0.01 µM) of the same molecule?
Its viability, T/C is 97.5%.

What about the viability, T/C (second compound 3.16 µM, first compound 0.0316 µM) of the same molecule?
Its viability, T/C is 93.1%.

What about the viability, T/C (second compound 3.16 µM, first compound 0.1 µM) of the same molecule?
Its viability, T/C is 91.8%.

What about the viability, T/C (second compound 3.16 µM, first compound 0.316 µM) of the same molecule?
The viability, T/C was 103%.

What about the viability, T/C (second compound 3.16 µM, first compound 1 µM) of the same molecule?
The viability, T/C was 95.3%.

And the viability, T/C (second compound 10 µM, first compound 0.00316 µM)?
The viability, T/C was 87.2%.

What about the viability, T/C (second compound 10 µM, first compound 0.01 µM) of the same molecule?
The viability, T/C was 86%.

What about the viability, T/C (second compound 10 µM, first compound 0.0316 µM) of the same molecule?
The viability, T/C was 91.8%.

What about the viability, T/C (second compound 10 µM, first compound 0.1 µM) of the same molecule?
The viability, T/C was 82.4%.

What about the viability, T/C (second compound 10 µM, first compound 0.316 µM) of the same molecule?
Its viability, T/C is 84.7%.

What about the viability, T/C (second compound 10 µM, first compound 1 µM) of the same molecule?
Its viability, T/C is 76.1%.
